“Also recorded” adds a separate entry of the source.
Experiments:
mice [1] = assay: Behavioral despair; assay type: in vivo, mouse; settings: forcibly immersed mice, i.p.
Description: Half an hour after they have received CRL 41 153, groups of 6 mice are placed in a beaker filled with water to a height of 6 cm. The total period of immobility between the 2nd and 6th minutes following immersion is noted.

[2] = pH of solutions in distilled water; assay type: physicochemical
Procedure: The neuropsychopharmacological study was undertaken according to the procedures described above for CRL 41 153, CRL 41 213 being adminstered intraperitoneally, in solution in distilled water, in a volume of 20 ml/kg to male mice and a volume of 5 ml/kg to male rats, and the pH of the injected solution varying with the concentration of CRL 41 213 according to the data given in Table II below.

mice [3] = assay: Overall behavior and reactivities in mice; assay type: in vivo, mouse; settings: i.p.
Procedure: (§1) In the neuropsychopharmacological study which follows, a solution of CRL 41 153 in distilled water (pH 1.5) was administered intraperitoneally in a volume of 20 ml/kg to male mice and 5 ml/kg to male rats.
(§2) Groups of three animals are observed before and then 0.25 hour, 0.50 hour, 1 hour, 2 hours, 3 hours and 24 hours after the administration of CRL 41 153.

rats [4] = assay: Investigation of stereotype movements; assay type: in vivo, rat; settings: i.p., compared with amphetamine 2 mg/kg
Procedure: Immediately after the intraperitoneal administration of CRL 41 194 or amphetamine, groups of 6 rats are placed in Plexiglass boxes (20×10×10 cm). The stereotype movements are graded from 0 to 3 every 10 minutes until they wear off.
Groups of 6 rats receive an intraperitoneal injection of CRL 41 213, distilled water or amphetamine immediately before being placed in small cages, where their stereotype behavior is graded every 10 minutes until the effect wears off.

mice [5] = assay: Spontaneous motility; assay type: in vivo, mouse; settings: i.p.
Procedure: 0.5 hour after they have received CRL 41 153, the mice (6 per dose, 12 control animals) are placed in an actimeter, where their motility is recorded for 30 minutes.

[6] = tested on: gravid White New Zealand female rabbits; assay: Teratogenicity in gravid White New Zealand rabbits; assay type: in vivo, rabbit; settings: dose 0 mg/kg [sic]
Method in brief: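 Fetuses harvested by cesarean on gestation day 29 were scored for number and for any malformation (limb blockade, anury, tail or skull defects, exencephaly).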

mice [7] = assay: Asphyxiant anoxia (gallamine triiodoethylate); assay type: in vivo, mouse; settings: i.p., curarizing agent
Procedure: Groups of 10 mice receive CRL 41 153 half an hour before the intraperitoneal administration of 32 mg/kg of gallamine triiodoethylate (reference curarizing agent).

mice [8] = assay: Intergroup aggressiveness; assay type: in vivo, mouse; settings: i.p.
Procedure: After they have stayed for 3 weeks in the two halves of a cage divided by an opaque partition, groups of 3 mice receive CRL 41 153. Half an hour later, the two groups from the same cage are brought together by removal of the partition, and the number of fights which occur in 10 minutes is noted.

CNS = assay: Neuropsychopharmacological profile as a whole; assay type: in vivo, mice and rats
Procedure: as §1

mice [9] = assay: Interaction with reserpine; assay type: in vivo, mouse; settings: i.p.
Procedure: Four hours after the intraperitoneal injection of 2.5 mg/kg of reserpine, groups of 6 mice receive CRL 41 153.

mice [10] = assay: Interaction with oxotremorine; assay type: in vivo, mouse; settings: i.p.
Procedure: CRL 41 153 is administered to groups of 6 mice 0.5 hour before the intraperitoneal injection of 0.5 mg/kg of oxotremorine.

rats [11] = assay: Interaction with amphetamine; assay type: in vivo, rat; settings: i.p.
Procedure: Amphetamine (2 mg/kg) is injected intraperitoneally into groups of 6 rats 30 minutes after the administration of CRL 41 153. […] 4 mg/kg and 16 mg/kg, CRL 41 153 potentiates the intensity and duration of the stereotypies induced by amphetamine.

rats [12] = assay: Overall behavior and reactivities in rats; assay type: in vivo, rat; settings: i.p.
Procedure: as §1, §2

rats [13] = assay: Interaction with apomorphine in rats; assay type: in vivo, rat; settings: i.p.
Procedure: CRL 41 153 is administered to groups of 6 rats 0.5 hour before the subcutaneous injection of 0.5 mg/kg of apomorphine.

mice [14] = assay: Motility reduced by hypoxic aggression; assay type: in vivo, mouse; settings: i.p.
Procedure: Half an hour after they have received CRL 41 153, the mice (10 per dose, 20 control animals) are subjected to acute hypobaric anoxia [pressure reduction of 600 mm Hg (i.e. about 8×10^4 Pa) in 90 seconds; release of vacuum in 45 seconds] and are then placed in an actimeter, where their motility is recorded for 10 minutes.

male mice = assay: Acute toxicity by intraperitoneal administration; assay type: in vivo, mouse; settings: i.p.
Procedure: as §1

mice [15] = assay: Four plate test, traction and electric shock; assay type: in vivo, mouse; settings: i.p.
Procedure: The test is performed on groups of 10 mice 30 minutes after the administration of CRL 41 153.

mice [16] = assay: Interaction with barbital; assay type: in vivo, mouse; settings: i.p., barbital 220 mg/kg
Procedure: Half an hour after the administration of CRL 41 153, groups of 10 mice receive an intraperitoneal injection of barbital (220 mg/kg).

mice [17] = assay: Motility reduced by habituation to the enclosure; assay type: in vivo, mouse; settings: i.p.
Procedure: After they have stayed In the actimeters for 18 hours, (he mice (6 per dose, 12 control animals) receive CRL 41 153. They are immediately returned to their respective enclosures and, half an hour later, their motility is recorded for 30 minutes.

mice [18] = assay: Interaction with apomorphine in mice; assay type: in vivo, mouse; settings: i.p.
Procedure: Groups of 6 mice receive CRL 41 153 0.5 hour before the subcutaneous injection of 1 or 16 mg/kg of apomorphine.

## CCCNC(C)C(=O)c1ccc(N)cc1 (centres unmarked) [CRL 41 213]
Mice [1]
  Period of immobility due to despair: as from a dose of 0.5 mg/kg, CRL 41 213 distinctly reduces the period of immobility; also recorded: Total antagonism is obtained at doses of 4 mg/kg, 16 mg/kg and 64 mg/kg
[2]; 0.2 g/liter in distilled water
  pH: 4.0
[2]; 0.4 g/liter in distilled water
  pH: 3.5
[2]; 0.8 g/liter in distilled water
  pH: 3.0
[2]; 1.6 g/liter in distilled water
  pH: 2.5
[2]; 3.2 g/liter in distilled water
  pH: 2.0
[2]; 25 g/liter in distilled water
  pH: 1.5
[2]; 50 g/liter in distilled water
  pH: 1.0
[2]; ≤0.1 g/liter in distilled water
  pH: 5.0
Mice [3]; 1 mg/kg
  Observed symptoms: moderate sedation 0.5 hour after administration
Mice [3]; 4 mg/kg
  Observed symptoms: moderate excitation 0.5 hour after administration; also recorded: piloerection for 0.25 hour
Mice [3]; 16 mg/kg
  Observed symptoms: excitation for more than 3 hours with the presence of stereotypies for about 2 hours as from the 1st hour following administration; also recorded: an increase in the fear reaction, the reactivity to touch and the aggressiveness for more than 3 hour; also recorded: salivation, lacrimation and exophthalmos for 1 hour; also recorded: polypnea
Mice [3]; 64 mg/kg
  Observed symptoms: clonic convulsions for 0.5 hour; also recorded: excitation for more than 3 hours with the presence of stereotypies; also recorded: an increase in the fear reaction and the reactivity to touch from 2 hours to more than 3 hours; also recorded: mydriasis for more than 3 hours; also recorded: polypnea
Rats [4]
  Stereotype movements: As from a dose of 2 mg/kg, CRL 41 213 causes the appearance of stereotype movements in rats, the intensity of which is substantially comparable to that obtained with 2 mg/kg of amphetamine; also recorded: Increasing the doses leads to an increase in the intensity and duration of these stereotypies
Mice [5]
  Spontaneous motor activity: At doses of 1 mg/kg, 4 mg/kg and 16 mg/kg, CRL 41 213 causes a substantial increase in the spontaneous motor activity of mice; also recorded: At the strongest dose studied (64 mg/kg), CRL 41 213 causes clonic convulsions and stereotypies
[6]
  Affected foetuses, number: 1
  Total foetuses (live): 84
[6]; normal limit 1.5%
  Affected foetuses, %: 1.19%
Mice [7]
  Time taken for convulsions to occur: does not modify (he time taken for convulsions to occur
  Time taken for death to occur: at a dose of 64 mg/kg, it moderately increases the time taken for death to occur
Mice [8]
  Number of fights / intergroup aggressiveness: does not modify the intergroup aggressiveness of mice
CNS; conclusion of the tests
  Anticonvulsant effects (overall): at high but non-toxic doses, CRL 41 213 causes the appearance of clonic convulsions but opposes the convulsant effects of electric shock
  Antidepressant effects (overall): possessing antidepressant, stimulant and arousing properties
  Stimulant effects (overall): possessing antidepressant, stimulant and arousing properties
  α-adrenergic stimulant effects (overall): effects reflecting peripheral α-adrenergic stimulation
CNS; species and dose not stated
  Peripheral α-adrenergic signs (mydriasis, salivation, lacrimation, exophthalmos): mydriasis; also recorded: presence of salivation, lacrimation and exophthalmos
Mice [9]
  Effect on hypothermia induced by reserpine: at doses of 1 mg/kg and 4 mg/kg, CRL 41 213 opposes the hypothermic action of reserpine; also recorded: at a weaker dose (0.25 mg/kg), no effect is detected
  Effect on ptosis induced by reserpine: at doses of 1 mg/kg and 4 mg/kg, CRL 41 213 opposes the hypothermic action of reserpine as well as the ptosis induced by reserpine; also recorded: at a weaker dose (0.25 mg/kg), no effect is detected
Mice [10]
  Effect on hypothermic action of oxotremorine: As from a dose of 4 mg/kg, CRL 41 213 opposes the hypothermic action of oxotremorine; also recorded: At the weakest dose studied (1 mg/kg), this effect is scarcely detectable
  Effect on trembling induced by oxotremorine: At the strongest doses (16 and 64 mg/kg), CRL 41 213 reduces the intensity of the trembling
Mice [10]; oxotremorine
  Action on the peripheral cholinergic symptoms: does not change the signs of peripheral cholinergic stimulation produced by oxotremorine
Rats [11]
  Effect on stereotypies induced by amphetamine: as from a dose of 2 mg/kg, CRL 41 213 potentiates the stereotypies induced by amphetamine
Rats [12]; 0.5 mg/kg
  Observed symptoms: mydriasis for 1 hour
Rats [12]; 2 mg/kg
  Observed symptoms: excitation with the presence of stereotypies; also recorded: an increase in the fear reaction and in the reactivity to touch and noise for 2 hours
Rats [12]; 8 mg/kg
  Observed symptoms: excitation with the presence of stereotypies; also recorded: an increase in the fear reaction and in the reactivity to touch and noise for 3 hours; also recorded: mydriasis for more than 3 hours
Rats [12]; 32 mg/kg
  Observed symptoms: excitation with the presence of very intense stereotypies; also recorded: an increase in the fear reaction and in the reactivity to touch and noise for 3 hours; also recorded: exophthalmos from 0.5 hour to 3 hours; also recorded: mydriasis for 3 hours; also recorded: polypnea
Rats [13]
  Effect on stereotypies induced by apomorphine: as from a dose of 2 mg/kg, CRL 41 213 causes an increase in the index of the stereotypes induced by apomorphine; also recorded: This increase is large in terms of intensity and duration at doses of 8 mg/kg and 32 mg/kg
Mice [14]
  Motor recovery of mice after hypobaric hypoxia: As from 1 mg/kg, CRL 41 213 causes a distinct improvement in the motor recovery
Male mice
  LD0 (maximum non-lethal dose): greater than or equal to 128 mg/kg
  LD100: less than or equal to 256 mg/kg
Mice [15]
  Effect on convulsant effects of electric shock: opposes the convulsant effects of electric shock 116 to 64 mg/kg)
  Motor incapacity (traction): causes motor incapacity (64 mg/kg)
  Number of punished passes in the four plate test: At doses of 1 mg/kg, 4 mg/kg and 16 mg/kg, CRL 41 213 causes an increase in the number of punished passes; also recorded: This increase is not present at the strongest dose used (64 mg/kg)
Mice [16]
  Duration of the sleep induced by barbital: as from a dose of 0.5 mg/kg. CRL 41 213 reduces the duration of the sleep induced by barbital; also recorded: Total antagonism is obtained for doses equal to or greater than 4 mg/kg
Mice [17]
  Motor activity of mice accustomed to their enclosure: at doses of 4 mg/kg, 16 mg/kg and 64 mg/kg, CRL 41 213 causes a resumption in the motor activity of mice accustomed to their enclosure
Mice [18]
  Effect on hypothermia induced by apomorphine: at doses of 1 mg/kg, 4 mg/kg, 16 mg/kg and 64 mg/kg, CRL 41 213 strongly opposes the hypothermia induced by apomorphine in mice
  Effect on righting behavior and stereotypies induced by apomorphine: At the strongest dose studied (64 mg/kg), CRL 41 213 moderately reduces the righting behavior without modifying the stereotypies induced by apomorphine
